Key:
[1] = tested on: AI-2 activity of APEC O109; experiment: AI-2 bioluminescence indicator assay (V. harveyi BB170); details: for Inhibition % of AI-2 activity: APEC O109, 100 µM
AI-2 activity of APEC O2 = experiment: as above; details: for Inhibition % of AI-2 activity: APEC O2, 100 µM
AI-2 activity of APEC O1 = experiment: as above; details: for Inhibition % of AI-2 activity: APEC O1, 100 µM
AI-2 activity of APEC O8 = experiment: as above; details: for Inhibition % of AI-2 activity: APEC O8, 100 µM
[2] = tested on: QS and virulence associated genes of APEC O78; experiment: qRT-PCR of QS-regulated and virulence factors genes; assay type: cell-based, avian pathogenic Escherichia coli (APEC); details: 100 µM, 10 h
Protocol: Quantitative real-time reverse transcription PCR (qRT-PCR). […] APEC O78 was grown in the presence of 100 µM of each compound in a 96-well plate at 37° C. for 10 h. APEC O78 culture treated with 1 µL of 100% DMSO was used as […]. Total RNA was extracted from duplicate wells for each compound (200 µL) using a miRNeasy Mini Kit (Qiagen). RNA quality and quantity was determined by nanodrop 2000 C spectrophotometer (Thermo scientific). Traces of DNA was removed using Genomic DNA removal mix (Qiagen). Approximately, 5 µg of purified RNA was used to synthesize cDNA using the Qiagen RT^2 First Strand Kit (Qiagen). The qRT-PCR was performed using SensiMix™ SYBER® Hi-Rox qPCR Master Mix (Bioline) according to manufacturer instructions in a realplex^2 mastercycler (Eppendorf) with 55° C. annealing temperature. Gene-specific primers were designed using PrimerQuest Tool and obtained from integrated DNA technologies (IDT). The data were normalized to the house-keeping gene, glyceraldehyde-3-phosphate dehydrogenase (GAPDH). The relative fold change was calculated using the ΔΔCt method. Three independent experiments were conducted.

[3] = tested on: AI-2 activity of APEC O18; experiment: AI-2 bioluminescence indicator assay (V. harveyi BB170); details: for Inhibition % of AI-2 activity: APEC O18, 100 µM
Rif^r APEC O78 [4] = experiment: In vivo screening of quorum sensing inhibitors in APEC infected broiler chickens; details: for reduction in chicken mortality: DMSO control mortality normalized to 100%; for average lesion score reduction: heart, lung and airsac, vs DMSO; for Mortality rate (%): oral gavage once a day, day 4 to day 8, DMSO control 66.7%; for Reduction in APEC lesions severity, Air-sacs (%) / Reduction in APEC lesions severity, Heart (%) / Reduction in APEC lesions severity, Liver (%) / Reduction in APEC lesions severity, Lung (%): vs DMSO treated control
Rif^r APEC O78 [5] = experiment: Wax moth (Galleria mellonella) larva infection model (AI-2 inhibitors); details: for larval death: 48 h post treatment
APEC O2 in HD-11 cells = experiment: Intracellular survival assay (AI-2 inhibitors); details: O2, HD-11, 100 µM, 6 h; for reduction of intracellular survival: vs DMSO
Caco-2 cells = experiment: LDH assay of AI-2 inhibitors; details: Caco-2, 100 µM, 24 h
[6] = tested on: AI-2 activity of APEC O78; experiment: AI-2 bioluminescence indicator assay (V. harveyi BB170); details: for Inhibition % of AI-2 activity: APEC O78, 100 µM
[7] = tested on: AI-2 activity of APEC O115; experiment: as above; details: APEC O115, 100 µM
[8] = tested on: AI-2 activity of APEC O35; experiment: as above; details: APEC O35, 100 µM
[9] = tested on: AI-2 activity of APEC O15; experiment: as above; details: APEC O15, 100 µM
APEC O2 in THP-1 cells = experiment: Intracellular survival assay (AI-2 inhibitors); details: O2, THP-1, 100 µM, 6 h
APEC O78 in HD-11 cells = experiment: Intracellular survival assay (AI-2 inhibitors); assay type: cell-based, avian pathogenic Escherichia coli (APEC); details: O78, HD-11, 100 µM, 6 h
Text: Intracellular survival assay.

[10] = Escherichia coli, read-out: Inhibition % of AI-2 activity

Molecule `O=[N+]([O-])c1cccc(S(=O)(=O)Nc2ccc(Br)cc2)c1` [C6, N-(4-bromophenyl)-3-nitrobenzenesulfonamide] has an inhibition at 100 µM [1, 10] of 60%, an inhibition at 100 µM (AI-2 activity of APEC O2; [10]) of 93% and an inhibition at 100 µM (AI-2 activity of APEC O1; Escherichia coli, read-out: Inhibition % of AI-2 activity, APEC O1, 100 µM) of no less than 75%. For the same molecule, the inhibition at 100 µM (AI-2 activity of APEC O8; Escherichia coli, read-out: Inhibition % of AI-2 activity, APEC O8, 100 µM) was no less than 75%, the “expression of cheW” value [2] was “down-regulated” and the “expression of csrA” value [2] was “down-regulated”. For the same molecule, the “expression of fliP” value [2] was “down-regulated”, the expression of fpr [2] was “down-regulated” and the “expression of murD” value [2] was “down-regulated”. For the same molecule, the inhibition at 100 µM ([3]; Escherichia coli, read-out: Inhibition % of AI-2 activity, APEC O18, 100 µM) was no less than 75%, the “reduction in chicken mortality” value (Rif^r APEC O78 [4]) was “did not reduce” and the “average lesion score reduction” value (Rif^r APEC O78 [4]; liver) was 0.7-1.3. For the same molecule, the “Mortality rate (%)” value (Rif^r APEC O78 [4]) was 66.7%, the “Reduction in APEC lesions severity, Air-sacs (%)” value (Rif^r APEC O78 [4]) was 53.3% and the “Reduction in APEC lesions severity, Heart (%)” value (Rif^r APEC O78 [4]) was 43.8%. The “Reduction in APEC lesions severity, Liver (%)” value (Rif^r APEC O78 [4]) was 54.5%, the “Reduction in APEC lesions severity, Lung (%)” value (Rif^r APEC O78 [4]) was 66.7% and the larval death (Rif^r APEC O78 [5]) was “no larval death”. For the same molecule, the “clearance of intracellular APEC” value (APEC O2 in HD-11 cells) was 100%, the “reduction of intracellular survival” value (APEC O2 in HD-11 cells) was 3.3 logs and the “toxicity (LDH)” value (Caco-2 cells) was 27%. It also gave an inhibition at 100 µM [6, 10] of 92%.

In the case of `COC(=S)NN=Cc1cc(C)ccc1O` [C4, methyl N′-{2-hydroxy-5-methylbenzylidene)hydrazonethiocarbonate], the “Inhibition % of AI-2 activity” value [1] is reported as 67%, the “Inhibition % of AI-2 activity” value (AI-2 activity of APEC O2) is reported as 76% and the “Inhibition % of AI-2 activity” value (AI-2 activity of APEC O1) is reported as 63%. The “Inhibition % of AI-2 activity” value (AI-2 activity of APEC O8) was 0%, the “expression of cheW” value [2] was “down-regulated” and the “expression of csrA” value [2] was “down-regulated”. The “expression of iucD” value [2] was “down-regulated”, the expression of pfs [2] was “up-regulated” and the “Inhibition % of AI-2 activity” value [3] was 54%. For the same molecule, the “Inhibition % of AI-2 activity” value [7] was 58%, the “Inhibition % of AI-2 activity” value [8] was 60% and the “Inhibition % of AI-2 activity” value [9] was 46%. The “toxicity (LDH)” value (Caco-2 cells) was 12% and the “Inhibition % of AI-2 activity” value [6] was 75%.

`CCc1ccccc1Nc1nc(-c2c(C)nc3ccccn23)cs1` [C8, N-{2-ethyphenyl)-4-(2-methylimidazo[1,2-a]pyridin-3-yl)-1.3-thiazol-2-amine] was tested, and the “Inhibition % of AI-2 activity” value (AI-2 activity of APEC O2) was 94%, the “Inhibition % of AI-2 activity” value (AI-2 activity of APEC O1) was 41% and the “Inhibition % of AI-2 activity” value (AI-2 activity of APEC O8) was 18%. The “expression of fliP” value [2] was “down-regulated”, the “Inhibition % of AI-2 activity” value [3] was 54% and the “reduction in chicken mortality” value (Rif^r APEC O78 [4]) was 50%. For the same molecule, the “average lesion score reduction” value (Rif^r APEC O78 [4]; liver) was 1.0-2.0, the “reduction of bacterial load in internal organs” value (Rif^r APEC O78 [4]; liver, lung, heart, and kidney, vs DMSO control, 'up to') was 2.2-3.1 log CFU/g and the “Mortality rate (%)” value (Rif^r APEC O78 [4]) was 33.3%. The “Reduction in APEC lesions severity, Air-sacs (%)” value (Rif^r APEC O78 [4]) was 66.7%, the “Reduction in APEC lesions severity, Heart (%)” value (Rif^r APEC O78 [4]) was 75% and the “Reduction in APEC lesions severity, Liver (%)” value (Rif^r APEC O78 [4]) was 75%. The “Reduction in APEC lesions severity, Lung (%)” value (Rif^r APEC O78 [4]) was 83.3%, the larval death (Rif^r APEC O78 [5]) was “no larval death” and the “clearance of APEC in live larvae” value (Rif^r APEC O78 [5]; 72 h) was 100%. For the same molecule, the “Inhibition % of AI-2 activity” value [7] was 44%, the “Inhibition % of AI-2 activity” value [8] was 57% and the “Inhibition % of AI-2 activity” value [9] was 25%. For the same molecule, the “toxicity (LDH)” value (Caco-2 cells) was 2% and the “Inhibition % of AI-2 activity” value [6] was 98%.

With `Fc1ccc(CN2CCCN(Cc3nc(-c4ccc(C(F)(F)F)cc4)no3)CC2)cc1` [C9, 1-(4-flurobenzyl)-4-((3-[4-(trifluoromethyl)phenyl]-1,2,4-oxadiazol-5-yl]methyl)-1,4-diazapane] the “Inhibition % of AI-2 activity” value [1] was 66%, the “Inhibition % of AI-2 activity” value (AI-2 activity of APEC O2) was 51% and the “Inhibition % of AI-2 activity” value (AI-2 activity of APEC O1) was 19%. For the same molecule, the “clearance of intracellular APEC” value (APEC O2 in THP-1 cells) was 100%, the “reduction of intracellular survival” value (APEC O2 in THP-1 cells; vs DMSO) was 4 logs and the “Inhibition % of AI-2 activity” value (AI-2 activity of APEC O8) was 20%. For the same molecule, the “expression of cheW” value [2] was “down-regulated”, the “expression of csrA” value [2] was “down-regulated” and the “expression of murD” value [2] was “down-regulated”. The “Inhibition % of AI-2 activity” value [3] was 14%, the “clearance of intracellular APEC” value (APEC O2 in HD-11 cells) was 100% and the “reduction of intracellular survival” value (APEC O2 in HD-11 cells) was 3.3 logs. The “Inhibition % of AI-2 activity” value [7] was 44%, the “Inhibition % of AI-2 activity” value [8] was 36% and the “clearance of intracellular APEC” value (APEC O78 in HD-11 cells) was 100%. For the same molecule, the “reduction of intracellular survival” value (APEC O78 in HD-11 cells; vs DMSO) was 4 logs, the “Inhibition % of AI-2 activity” value [9] was 0% and the “Inhibition % of AI-2 activity” value [6] was 79%.
